Laboratory results taken from ChEMBL document CHEMBL1123446, “Amino-substituted p-benzoquinones” (1986).

Columns and labels:
L1210 = assay: In vitro significant inhibitory activity against L1210 leukemia cell lines; assay type: functional; settings: Mus musculus, read-out: ID50 (the source's name)
Homo sapiens = species on record: Homo sapiens; assay: In vitro significant inhibitory activity against human colon […]; assay type: functional; settings: read-out: ID50 (the source's name)

An IC50 (L1210) of 37 nM and an IC50 (Homo sapiens) of 100 nM were found for `CN(C)Cc1ccc(NC2=C(Cl)C(=O)C(Nc3ccc(CN(C)C)cc3)=C(Cl)C2=O)cc1` in this work.

An IC50 (Homo sapiens) of 140 nM was found for `CN(C)Cc1ccc(NC2=C(Br)C(=O)C(Nc3ccc(CN(C)C)cc3)=C(Br)C2=O)cc1` in this work.

An IC50 (Homo sapiens) of 80 nM was found for `CO[C@H](C(=O)[C@@H](O)[C@@H](C)O)[C@@H]1Cc2cc3cc(O[C@H]4C[C@@H](O[C@@H]5C[C@@H](O)[C@H](O)[C@@H](C)O5)[C@H](O)[C@@H](C)O4)c(C)c(O)c3c(O)c2C(=O)[C@H]1O[C@H]1C[C@@H](O[C@@H]2C[C@@H](O)[C@@H](O[C@@H]3C[C@](C)(O)[C@H](O)[C@@H](C)O3)[C@@H](C)O2)[C@H](O)[C@@H](C)O1` [PLICAMYCIN] in this work.
